Results on 23 compounds are retold here after PubChem BioAssay AID248 (DTP/NCI, 2004).

Inconclusive results and toxic doses are left out.

In this assay the test system is L1210 leukemia ip in BDF1 mice, survival T/C. Nature of the assay: NCI In Vivo Anticancer Drug Screen. Data for tumor model L1210 Leukemia (intraperitoneal) in B6D2F1 (BDF1) mice. As to conditions: endpoint: mean survival time, higher = longer survival. The method in brief: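 Each compound was tested against a transplantable tumor grown in mice. The endpoint was survival, with treated animals benchmarked against vehicle controls as a simple ratio.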

[1] abbreviates: dose: 100.0 mg/kg/injection, schedule: Q01DX009 (ip), vehicle: saline with Tween-80.
Setting [2] is: dose: 100.0 mg/kg/injection, schedule: Q01DX009 (ip), vehicle: saline.
Where [3] appears, read: dose: 100.0 mg/kg/injection, schedule: Q04DX003 (ip), vehicle: Klucel (hydroxypropylcellulose) (HPC).
[4] abbreviates: dose: 200.0 mg/kg/injection, schedule: Q01DX009 (ip), vehicle: saline.
[5] abbreviates: dose: 200.0 mg/kg/injection, schedule: Q04DX003 (ip), vehicle: Klucel (hydroxypropylcellulose) (HPC).
Setting [6] is: dose: 400.0 mg/kg/injection, schedule: Q01DX009 (ip), vehicle: saline.
Setting [7] is: dose: 400.0 mg/kg/injection, schedule: Q04DX003 (ip), vehicle: Klucel (hydroxypropylcellulose) (HPC).
Setting [8] is: dose: 100.0 mg/kg/injection, schedule: Q01DX001 (ip), vehicle: saline.
Where [9] appears, read: dose: 200.0 mg/kg/injection, schedule: Q01DX001 (ip), vehicle: saline.
[10] abbreviates: dose: 100.0 mg/kg/injection, schedule: Q01DX001 (ip), vehicle: Klucel (hydroxypropylcellulose) (HPC).
[11] abbreviates: dose: 200.0 mg/kg/injection, schedule: Q01DX001 (ip), vehicle: Klucel (hydroxypropylcellulose) (HPC).
[12] abbreviates: dose: 100.0 mg/kg/injection, schedule: Q04DX003 (ip), vehicle: saline with Tween-80.
The mark [13] stands for this setting: dose: 200.0 mg/kg/injection, schedule: Q04DX003 (ip), vehicle: saline with Tween-80.
[14] abbreviates: dose: 100.0 mg/kg/injection, schedule: Q01DX001 (ip), vehicle: saline with Tween-80.
Where [15] appears, read: dose: 200.0 mg/kg/injection, schedule: Q01DX001 (ip), vehicle: saline with Tween-80.
Setting [16] is: dose: 400.0 mg/kg/injection, schedule: Q01DX001 (ip), vehicle: saline with Tween-80.
Setting [17] is: dose: 100.0 mg/kg/injection, schedule: Q04DX003 (ip), vehicle: saline.
[18] abbreviates: dose: 200.0 mg/kg/injection, schedule: Q04DX003 (ip), vehicle: saline.
Setting [19] is: dose: 400.0 mg/kg/injection, schedule: Q04DX003 (ip), vehicle: saline.
Setting [20] is: dose: 50.0 mg/kg/injection, schedule: Q01DX001 (ip), vehicle: carboxymethylcellulose (CMC).
Where [21] appears, read: dose: 100.0 mg/kg/injection, schedule: Q01DX001 (ip), vehicle: carboxymethylcellulose (CMC).
Where [22] appears, read: dose: 200.0 mg/kg/injection, schedule: Q01DX001 (ip), vehicle: carboxymethylcellulose (CMC).
[23] abbreviates: dose: 400.0 mg/kg/injection, schedule: Q01DX001 (ip), vehicle: carboxymethylcellulose (CMC).

`O=C1CCCCCCCCC1O` (stereo not drawn): the T/C is 120 % of control under setting [1]; 333 % of control under setting [2]; 103 % of control under setting [3]; 101 % of control (dose: 200.0 mg/kg/injection, schedule: Q01DX009 (ip), vehicle: saline with Tween-80); 114 % of control under setting [4]; 115 % of control under setting [5]. Moreover, the T/C reads like this: (dose: 400.0 mg/kg/injection, schedule: Q01DX009 (ip), vehicle: saline with Tween-80) 97 % of control; under setting [6], 105 % of control; under setting [7], 108 % of control.

Consider `OCCCC(O)CO` (stereo not drawn), for which the T/C is 98 % of control (dose: 222.0 mg/kg/injection, schedule: Q01DX Z (ip), vehicle: saline); 111 % of control (dose: 333.0 mg/kg/injection, schedule: Q01DX Z (ip), vehicle: saline); 102 % of control (dose: 500.0 mg/kg/injection, schedule: Q01DX Z (ip), vehicle: saline).

As for `CCCCS(=O)C1(CCC)OC1(c1ccccc1)c1ccccc1` (stereo not drawn), the T/C is 121 % of control (dose: 100.0 mg/kg/injection, schedule: Q03DX002 (ip), vehicle: other); 102 % of control (dose: 200.0 mg/kg/injection, schedule: Q03DX002 (ip), vehicle: other); 96 % of control (dose: 400.0 mg/kg/injection, schedule: Q03DX002 (ip), vehicle: other).

In the case of `O=c1ccc2cccc(O)c2[nH]1`, the T/C under setting [8] is 97 % of control; the T/C under setting [9] is 94 % of control; the T/C (dose: 400.0 mg/kg/injection, schedule: Q01DX001 (ip), vehicle: saline) is 100 % of control.

Turning to `Nc1ncnc(N)c1NC(=O)CCCc1ccc([N+](=O)[O-])cc1`, the T/C was 102 % of control (dose: 50.0 mg/kg/injection, schedule: Q01DX001 (ip), vehicle: Klucel (hydroxypropylcellulose) (HPC)); 98 % of control under setting [10]; 94 % of control under setting [11].

Regarding `O=C(O)C(F)(F)F.[Cu+2]`, the T/C was 98 % of control (dose: 12.5 mg/kg/injection, schedule: Q04DX002 (ip), vehicle: saline) and 95 % of control (dose: 25.0 mg/kg/injection, schedule: Q04DX002 (ip), vehicle: saline).

With `OC1COC(Cl)C(O)C1O` (stereo not drawn), the T/C reads like this: (dose: 25.0 mg/kg/injection, schedule: Q01DX009 (ip), vehicle: saline with Tween-80) 96 % of control; (dose: 50.0 mg/kg/injection, schedule: Q01DX009 (ip), vehicle: saline with Tween-80) 97 % of control; under setting [1], 94 % of control; under setting [12], 91 % of control; under setting [13], 88 % of control.

For the compound `O=C1CCc2cccc(O)c2N1`, the T/C reads like this: under setting [8], 103 % of control; under setting [9], 103 % of control.

Consider `CNC(=O)CCC(NS(=O)(=O)c1ccc(C)cc1)C(=O)O` (stereo not drawn), for which the T/C is 100 % of control under setting [14], 95 % of control under setting [15] and 97 % of control under setting [16].

As for `O=C(O)/C(=C\c1ccccc1)c1ccc([N+](=O)[O-])cc1`, the T/C was 103 % of control under setting [12]; 92 % of control under setting [13]; 92 % of control (dose: 400.0 mg/kg/injection, schedule: Q04DX003 (ip), vehicle: saline with Tween-80).

Consider `O=S1(=O)C=CC1`, for which, where the note is “dose: 50.0 mg/kg/injection, schedule: Q01DX001 (ip), vehicle: saline”, the T/C was 115 % of control.

`CC1=C(C)Cc2c(-c3ccccc3)oc(-c3ccccc3)c2C1`: the T/C under setting [14] is 94 % of control, the T/C under setting [15] was 90 % of control and the T/C under setting [16] is 90 % of control.

For `CCCN(CCC)CCCCCCO`, the T/C under setting [12] was 94 % of control and the T/C under setting [13] is 96 % of control.

Regarding `CC(=O)NCCN(C)C`, the T/C runs as follows: under setting [2], 97 % of control; under setting [17], 103 % of control; under setting [4], 96 % of control; under setting [18], 101 % of control; under setting [6], 97 % of control; under setting [19], 97 % of control.

Consider `COC(=O)c1nc[nH]c1N=[N+]=[N-]`, for which the T/C (dose: 100.0 mg/kg/injection, schedule: Q01DX001 (ip), vehicle: other) was 97 % of control.

For `COC(=O)C1OC(n2cnc3c(Cl)ncnc32)C(OC(C)=O)C(OC(C)=O)C1OC(C)=O` (stereo not drawn), the T/C is, setting by setting: under setting [20], 100 % of control; under setting [21], 108 % of control; under setting [22], 103 % of control; under setting [23], 97 % of control.

Turning to `O=C(NCCCCCCCCCCNC(=O)Nc1ccc(C2=NCC(O)CN2)cc1)Nc1ccc(C2=NCC(O)CN2)cc1` (stereo not drawn), the T/C was 117 % of control (dose: 4.0 mg/kg/injection, schedule: Q01DX Z (ip), vehicle: water); 112 % of control (dose: 8.0 mg/kg/injection, schedule: Q01DX Z (ip), vehicle: water); 106 % of control (dose: 16.0 mg/kg/injection, schedule: Q01DX Z (ip), vehicle: water).

`CCCCCCCCCCCCCCCCN(C)C(=S)c1ccc(Cl)c(Cl)c1`: the T/C is, setting by setting: under setting [10], 100 % of control; under setting [3], 100 % of control; under setting [11], 100 % of control; under setting [5], 96 % of control; (dose: 400.0 mg/kg/injection, schedule: Q01DX001 (ip), vehicle: Klucel (hydroxypropylcellulose) (HPC)) 98 % of control; under setting [7], 91 % of control.

As to `Cc1c(C)c(C)c(CNNC(=S)Nc2ccc(S(=O)(=O)N3CCCCC3)cc2)c(C)c1C`, the T/C (dose: 100.0 mg/kg/injection, schedule: Q04DX002 (ip), vehicle: Klucel (hydroxypropylcellulose) (HPC)) was 104 % of control; the T/C (dose: 200.0 mg/kg/injection, schedule: Q04DX002 (ip), vehicle: Klucel (hydroxypropylcellulose) (HPC)) was 92 % of control; the T/C (dose: 400.0 mg/kg/injection, schedule: Q04DX002 (ip), vehicle: Klucel (hydroxypropylcellulose) (HPC)) was 95 % of control.

In the case of `O=C1CSCC(=O)O1`, the T/C by setting is: (dose: 50.0 mg/kg/injection, schedule: Q01DX009 (ip), vehicle: Klucel (hydroxypropylcellulose) (HPC)) 97 % of control; (dose: 100.0 mg/kg/injection, schedule: Q01DX009 (ip), vehicle: Klucel (hydroxypropylcellulose) (HPC)) 89 % of control; (dose: 200.0 mg/kg/injection, schedule: Q01DX009 (ip), vehicle: Klucel (hydroxypropylcellulose) (HPC)) 86 % of control.

Turning to `Fc1cc(N(CCCl)CCCl)ccc1C1N(Cc2ccc(N(CCCl)CCCl)cc2Cl)CCCN1Cc1ccc(N(CCCl)CCCl)cc1Cl`, the T/C by setting is: under setting [20], 96 % of control; under setting [21], 105 % of control; under setting [22], 96 % of control; under setting [23], 100 % of control.

With `CCCCSP(=O)(SCCCC)N1CCCCC1`, the T/C is, setting by setting: (dose: 25.0 mg/kg/injection, schedule: Q04DX002 (ip), vehicle: saline with Tween-80) 108 % of control; (dose: 50.0 mg/kg/injection, schedule: Q04DX002 (ip), vehicle: saline with Tween-80) 89 % of control; (dose: 100.0 mg/kg/injection, schedule: Q04DX002 (ip), vehicle: saline with Tween-80) 101 % of control.

For the compound `CCOC(=O)C1C2c3ccccc3C(C1C(=O)OCC)[n+]1ccccc12` (stereo not drawn), the T/C reads like this: under setting [17], 100 % of control; under setting [18], 97 % of control; under setting [19], 100 % of control.
